Source: US20260070922A1, “PYRAZOLE AND IMIDAZOLE DERIVATIVES AS DUAL OREXIN AND KAPPA-OPIOID RECEPTORS MODULATORS COMPOSITION, METHODS FOR TREATING NEUROLOGICAL AND PSYCHIATRIC DISORDERS” (HAGER BIOSCIENCES, LLC, priority 2022, published 2026)

Columns and labels:
[1] = molecular target: T1, human k-opioid receptor (kOR) (Homo sapiens, UniProt P41145); experiment: Human k-opioid (KOP) receptor (agonist radioligand [3H]U-69593) binding assay, transfected RBL cell membranes; conditions: for IC50: first value of IC50/Ki cell; for inhibition at 1 µM: read-out: KOR % Inh. @ 1 uM
T1 construct: expressed in transfected cells; host or cells: RBL cells (membrane homogenates)
T1 sequence (P41145 whole entry): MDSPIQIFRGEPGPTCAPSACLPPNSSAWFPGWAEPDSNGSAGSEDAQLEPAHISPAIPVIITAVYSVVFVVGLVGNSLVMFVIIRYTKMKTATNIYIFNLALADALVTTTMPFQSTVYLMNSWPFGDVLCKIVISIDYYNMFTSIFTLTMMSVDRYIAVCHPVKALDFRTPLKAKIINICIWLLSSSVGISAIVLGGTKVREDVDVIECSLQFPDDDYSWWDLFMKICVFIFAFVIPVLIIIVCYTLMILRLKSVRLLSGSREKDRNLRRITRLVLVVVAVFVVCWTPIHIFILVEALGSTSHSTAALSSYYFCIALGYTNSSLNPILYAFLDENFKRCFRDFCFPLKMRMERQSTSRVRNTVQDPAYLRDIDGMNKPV
How it was run: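 Membranes from transfected RBL cells (~80 μg protein) incubated 60 min at 22° C with 0.5 nM [3H]U-69593 in 50 mM Tris-HCl pH 7.4, 10 mM MgCl2, 1 mM EDTA. Nonspecific binding defined with 10 μM naloxone; filtration and scintillation counting. Values are percent inhibition of specific radioligand binding.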

[2] = molecular target: T1, human k-opioid receptor (kOR); experiment: as above; conditions: second value of IC50/Ki cell
[3] = molecular target: T2, Orexin type 1 (OX1R) receptor (Homo sapiens, UniProt O43613); experiment: In vitro orexin antagonism assay: intracellular calcium measurement (FLIPR), orexin-A 3 nM as agonist; assay type: cell-based; conditions: for inhibition at 1 µM: read-out: OX1R, % Inh. @ 1 uM; for IC50: first value of IC50/Kb cell; for Kb: second value of IC50/Kb cell
T2 construct: expressed in transfected cells; host or cells: CHO cells (G418 selection)
T2 sequence (O43613 1-425): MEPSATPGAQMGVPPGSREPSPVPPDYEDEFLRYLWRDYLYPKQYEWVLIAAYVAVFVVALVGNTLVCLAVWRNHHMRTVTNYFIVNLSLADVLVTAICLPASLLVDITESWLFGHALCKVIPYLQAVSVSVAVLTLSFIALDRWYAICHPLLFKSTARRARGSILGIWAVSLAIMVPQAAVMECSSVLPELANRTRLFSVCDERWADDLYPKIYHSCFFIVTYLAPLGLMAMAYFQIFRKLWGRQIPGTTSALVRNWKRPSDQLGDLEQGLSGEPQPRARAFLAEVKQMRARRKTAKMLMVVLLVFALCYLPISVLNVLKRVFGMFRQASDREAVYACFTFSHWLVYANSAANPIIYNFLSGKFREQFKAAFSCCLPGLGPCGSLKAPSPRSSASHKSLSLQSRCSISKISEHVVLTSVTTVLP
How it was run: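 CHO cells expressing the human orexin receptor were loaded with 3 μM fluo-4 AM plus 5 mM probenecid, then exposed to antagonist for 120 min before 3 nM orexin-A (final) was added on a FLIPR.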

[4] = molecular target: T3, human orexin-2 receptor (OX2R) (Homo sapiens, UniProt O43614); experiment: as above; assay type: cell-based; conditions: for inhibition at 1 µM: read-out: OX2R, % Inh. @ 1 uM; for Kb: second value of IC50/Kb cell; for IC50: first value of IC50/Kb cell
T3 construct: expressed in transfected cells; host or cells: CHO cells (G418 selection)
T3 sequence (O43614 1-444): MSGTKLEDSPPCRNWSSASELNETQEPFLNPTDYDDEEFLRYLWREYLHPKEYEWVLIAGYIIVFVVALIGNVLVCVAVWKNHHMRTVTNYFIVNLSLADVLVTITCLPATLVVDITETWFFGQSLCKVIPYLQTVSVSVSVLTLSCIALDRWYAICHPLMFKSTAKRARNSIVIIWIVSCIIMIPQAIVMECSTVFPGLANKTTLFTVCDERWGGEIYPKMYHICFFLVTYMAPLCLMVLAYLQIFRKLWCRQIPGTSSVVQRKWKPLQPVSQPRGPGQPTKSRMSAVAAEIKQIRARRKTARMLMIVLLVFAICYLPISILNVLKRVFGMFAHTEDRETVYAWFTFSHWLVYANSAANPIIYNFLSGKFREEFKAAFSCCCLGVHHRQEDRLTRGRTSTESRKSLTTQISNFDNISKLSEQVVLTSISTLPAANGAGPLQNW
How it was run: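 CHO cells stably expressing human OX1R or OX2R, loaded with fluo-4 AM (3 μM, 5 mM probenecid) for 50 min at 37 °C, then 30 min at RT. Antagonist preincubated 120 min before 3 nM orexin-A; FLIPR fluorescence peak height vs vehicle gives IC50, possibly normalized to on-plate reference; geometric mean of repeats.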

SMILES	IC50 [1] [µM]	inhibition at 1 µM [1] [%]	Ki [2] [µM]	inhibition at 1 µM [3] [%]	inhibition at 1 µM [4] [%]	IC50 [3] [µM]	Kb [3] [µM]	Kb [4] [µM]	IC50 [4] [µM]	OX1R, % Inh. @ 1 uM ([3]; @ 1 uM) [%]	OX2R, % Inh. @ 1 uM ([4]; @ 1 uM) [%]	KOR % Inh. @ 1 uM ([1]; @ 1 uM) [%]
CCc1cnc(NC[C@@H]2[C@H](C)CCCN2C(=O)c2c(-c3ccccc3)nn3ccccc23)nc1 [Example 4]	1.56	52	0.854									
C[C@@H]1CCCN(C(=O)c2c(-c3ccccc3)nn3c2COCC3)[C@@H]1CNc1ccc(C(F)(F)F)cn1 [Example 7]	1.47	35	0.799									
C[C@@H]1CCCN(C(=O)c2c(-c3ccccc3)nc3ccccn23)[C@@H]1CNc1ccc(C(F)(F)F)cn1 [Example 8]	1.98	38	1.08	100	21.4							
O=C(c1c(-c2ccccc2)nn2ccccc12)N1CCC[C@H]1CNc1ccc(C(F)(F)F)cn1 [Example 10]	6.13	26	3.34			0.004	0.001					
O=C(c1c(-c2ccccc2)nn2ccccc12)N1CCC[C@H]1Cn1ccc(-c2ccccc2)n1 [Example 13]	1.01	56	0.549		98.5			0.01				
O=C(c1c(-c2ccccc2)nn2ccccc12)N1CCC[C@H]1COc1ccc(C(F)(F)F)cn1 [Example 20]	3.5	33	1.91									
O=C(c1c(-c2ccccc2)nn2ccccc12)N1CCCC[C@H]1COc1ccc(C(F)(F)F)cn1 [Example 24]	1.1	52	0.63	98	60.1	0.005	0.001					
O=C(c1c(-c2ccccn2)nn2ccccc12)N1CCC[C@H]1Cc1nc(-c2ccccn2)no1 [Example 156]		6		97	50	0.023	0.005					
C[C@@]1(COc2ccc(C(F)(F)F)cn2)CCCN1C(=O)c1nn2c(c1-c1ccccc1)OCCC2 [Example 157]		7		100	16	0.19	0.039					
C[C@@]1(COc2ccc(C(F)(F)F)cn2)CCCN1C(=O)c1c(-c2ccccc2)nn2cccnc12 [Example 158]		2		93	46	0.12	0.026					
[2H]C1([2H])CC[C@@]([2H])(COc2ccc(C(F)(F)F)cn2)N1C(=O)c1nn2c(c1-c1ccccc1)COCC2 [Example 171]		0		100	26	0.01	0.002					
O=C(c1nn2ccccc2c1-c1ccccn1)N1CCC[C@H]1COc1ccc(C(F)(F)F)cn1 [Example 172]		4		100	40							
O=C(c1nn2ccccc2c1-c1ccccn1)N1CCC[C@H]1Cn1cc(-c2ccccn2)cn1 [Example 173]		3		100	82	0.008	0.002	0.045	0.26			
O=C(c1nn2ccccc2c1-c1ccccn1)N1CCC[C@H]1Cn1ccc(-c2ccccn2)n1 [Example 174]		0		100	56	0.005	0.0009					
[2H]C1([2H])CC[C@@]([2H])(Cn2ccc(-c3ccc(F)cc3)n2)N1C(=O)c1c(-c2ncccn2)nn2ccccc12 [Example 178]		53		92	95	0.004	0.0008	0.003	0.015			
O=C(c1nc2ccccn2c1-c1ccccn1)N1CCC[C@H]1Cn1cc(-c2ccccn2)cn1 [Example 181]		0		91	39	0.04	0.009					
O=C(c1nn2ccccc2c1-c1ccccn1)N1CCC[C@H]1Cn1cc(-c2ccc(F)cn2)cn1 [Example 183]		0		94	67	0.038	0.009					
O=C(c1nn2cccnc2c1-c1ccccn1)N1CCC[C@H]1Cn1cc(-c2ccccn2)cn1 [Example 186]		3		86	65	0.021	0.004					
O=C(c1nn2cccnc2c1-c1ccccn1)N1C(Cn2ccc(-c3ccc(F)cn3)n2)C[C@@H]2C[C@@H]21 (stereo partly shown) [Example 187]		0		100	34	0.014	0.003					
O=C(c1nn2cccnc2c1-c1ccccn1)N1CCC[C@H]1Cn1cc(-c2ccc(F)cn2)cn1 [Example 194]		0		89	82			0.031	0.18			
O=C(c1nn2c(c1-c1ccccn1)OCCC2)N1CCC[C@H]1Cn1cc(-c2ccccn2)cn1 [Example 197]		2		97	39	0.031	0.007					
O=C(c1nn2c(c1-c1ccccn1)COCC2)N1CCC[C@H]1Cn1cc(-c2ccc(F)cn2)cn1 [Example 198]						0.14	0.029			84	50	8
O=C(c1nn2c(c1-c1ccccn1)OCCC2)N1[C@H](Cn2ccc(-c3ccc(F)cn3)n2)C[C@@H]2C[C@@H]21 [Example 202]		3		87	14	0.064	0.014					
O=C(c1nc2ccccn2c1-c1ccccn1)N1CCC[C@H]1Cn1cc(-c2ccc(F)cn2)cn1 [Example 208]		0		100	52	0.039	0.008					
